This is an account of results in paper PMC9926234, “Iterative computational design and crystallographic screening identifies potent inhibitors targeting the Nsp3 macrodomain of SARS-CoV-2” (Proceedings of the National Academy of Sciences of the …, 2023).

Test [1] deals with T1, SARS-CoV-2 NSP3 Mac1 (Severe acute respiratory syndrome coronavirus 2, UniProt P0DTD1). Format: binding. To be noted: for Spearman est (compound concentration vs apparent Tm): DSF dose responsiveness, 1 µM nsp3 mac1, adj p given. More on the design: contains a conserved macrodomain enzyme (Mac1). The method in brief:
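ΔTma values are thermal shifts relative to a co-located DMSO-only control, read with 5 µM Fluorescent Yellow dye. Each compound was tested in triplicate over seven concentrations (two-fold steps, top 1,000 or 100 μM). Spearman correlation of concentration versus ΔTma tested whether the shift was dose-responsive.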

Test [2] addresses T1, SARS-CoV-2 NSP3 Mac1. Format: binding. The conditions noted are these: for Refined occupancy: ligand occupancy after refinement (phenix.refine).
[3] abbreviates: PanDDA event map, 1 minus background density correction, crystal soaking of Mac1.
Where [4] appears, read: true hit = binding in crystallographic soaking or the HTRF-based binding assay.
[5] abbreviates: maximal thermal upshift vs DMSO control.
Where [6] appears, read: overall hit flag: binding in crystallographic soaking or the HTRF-based binding assay.
Setting [7] is: PanDDA 1-BDC (background density correction) of the event, crystal soak 100 mM, PanDDA run dmso_34.
[8] abbreviates: crystal soak, compound concentration 100 mM, PanDDA run dmso_34, series docking_lead-like_1.
Setting [9] is: ligand modeled in the crystal structure, crystal soak 100 mM, PanDDA run dmso_34.

The structures appear in SMILES notation. Where “and” joins values, the source holds several entries; their conditions need not be identical. Equal entries are not always repeated. Where two headings read alike, the source gives them in different places.

With `Nc1ncnc(N2CCCC(CCC(=O)O)C2)c1Cl` (centres unmarked) [REAL250003296134], on SARS-CoV-2 NSP3 Mac1 [1], the “Spearman est (compound concentration vs apparent Tm)” value is listed as 0.65. Moreover, the “DSF max dTma” value on SARS-CoV-2 NSP3 Mac1 [1] (maximal thermal upshift) was 0.34 ˚C. Also, the 1-BDC on SARS-CoV-2 NSP3 Mac1 [2] (PanDDA 1-BDC value of the event, crystal soak, compound concentration 100 mM, per dataset) is reported as 0.09; on SARS-CoV-2 NSP3 Mac1 [2] (setting [3]), 0.09. Further, the “PanDDA hit?” value at SARS-CoV-2 NSP3 Mac1 [2] (crystal soak, compound concentration 100 mM, per dataset) is recorded as “TRUE”. At SARS-CoV-2 NSP3 Mac1 [2] (ligand modeled in the crystal structure, crystal soak, compound concentration 100 mM, per dataset), the “Modeled?” value is “TRUE”. The compound also showed a Refined occupancy at SARS-CoV-2 NSP3 Mac1 [2] (crystal soaking of Mac1) of 18. Besides, the “HIT*” value on SARS-CoV-2 NSP3 Mac1 [2] (setting [4]) is given as “Y”.
In the case of `Cc1oc(=O)oc1CSc1ncnc2[nH]cnc12` [Z7450], at SARS-CoV-2 NSP3 Mac1 [1] (setting [5]), the “DSF max dTma” value was 0.49 °C. The “HIT*” value at SARS-CoV-2 NSP3 Mac1 [2] (setting [6]) is “Y”.
Regarding `O=c1nc(N2CC(Cn3cnnc3)C3(CCC3)C2)cc(Cl)[nH]1` (centres unmarked) [FRESH00020289192], the “Spearman est (compound concentration vs apparent Tm)” value at SARS-CoV-2 NSP3 Mac1 [1] is listed as −0.17. Moreover, the “DSF max dTma” value at SARS-CoV-2 NSP3 Mac1 [1] (maximal thermal upshift) was 0.04 ˚C. This compound yielded a 1-BDC on SARS-CoV-2 NSP3 Mac1 [2] (setting [3]) of 0.08. For the same compound, the Refined occupancy on SARS-CoV-2 NSP3 Mac1 [2] (crystal soaking of Mac1) amounted to 16. Moreover, at SARS-CoV-2 NSP3 Mac1 [2] (setting [4]), the “HIT*” value was “Y”.
Consider `CC(CSc1nnc2[nH]cnn12)c1ccccc1` (centres unmarked) [ZINC000920153280], for which, on SARS-CoV-2 NSP3 Mac1 [1], the “Spearman est (compound concentration vs apparent Tm)” value is −0.66. Besides, the “DSF max dTma” value on SARS-CoV-2 NSP3 Mac1 [1] (setting [5]) was determined as 0 °C. For the same compound, the 1-BDC at SARS-CoV-2 NSP3 Mac1 [2] (setting [7]) and at SARS-CoV-2 NSP3 Mac1 [2] (setting [3]) was 0.2 throughout. Moreover, on SARS-CoV-2 NSP3 Mac1 [2] (setting [8]), the “PanDDA hit?” value was “TRUE”. Besides, the “Modeled?” value at SARS-CoV-2 NSP3 Mac1 [2] (setting [9]) was “TRUE”. In addition, the Refined occupancy at SARS-CoV-2 NSP3 Mac1 [2] (crystal soaking of Mac1) is on record as 40. The “HIT*” value on SARS-CoV-2 NSP3 Mac1 [2] (setting [6]) was “Y”.
For the compound `Nc1nc(N)c2ncn(Cc3csc(C4CC4)n3)c2n1` [Z8585], the “DSF max dTma” value at SARS-CoV-2 NSP3 Mac1 [1] (setting [5]) was 1.3 °C. Also, the “HIT*” value on SARS-CoV-2 NSP3 Mac1 [2] (setting [6]) was “Y”.
For the compound `O=C1CCCN1CCSc1ncnc2[nH]cnc12` [Z9920], the “DSF max dTma” value at SARS-CoV-2 NSP3 Mac1 [1] (setting [5]) came out at 0.95 °C. For the same compound, the “HIT*” value on SARS-CoV-2 NSP3 Mac1 [2] (setting [6]) is “Y”.
For `Nc1ncnc(N2CCC(Oc3ccncc3)C2)c1Cl` (centres unmarked) [ZINC000302059710], the “Spearman est (compound concentration vs apparent Tm)” value at SARS-CoV-2 NSP3 Mac1 [1] is given as −0.85. Besides, on SARS-CoV-2 NSP3 Mac1 [1] (setting [5]), the “DSF max dTma” value came to 0 °C. The 1-BDC on SARS-CoV-2 NSP3 Mac1 [2] (PanDDA event map background density correction, crystal soak, Compound_concentration 100 mM, PanDDA run dmso_34) was 0.13; on SARS-CoV-2 NSP3 Mac1 [2] (setting [3]), 0.13. Moreover, at SARS-CoV-2 NSP3 Mac1 [2] (crystal soak, Compound_concentration 100 mM, Echo dispense 40 nl, PanDDA run dmso_34), the “PanDDA hit?” value was “TRUE”. On SARS-CoV-2 NSP3 Mac1 [2] (ligand modeled in crystal structure, crystal soak, Compound_concentration 100 mM, PanDDA run dmso_34), the “Modeled?” value is “TRUE”. The same compound came in with a Refined occupancy at SARS-CoV-2 NSP3 Mac1 [2] (crystal soaking of Mac1) of 26. For the same compound, the “HIT*” value at SARS-CoV-2 NSP3 Mac1 [2] (setting [6]) is on record as “Y”.
As to `C[C@H]1CN(C(=O)c2cccc3[nH]c(=O)oc23)C[C@@H]1C(=O)O` [ZINC000833624464], the “Spearman est (compound concentration vs apparent Tm)” value on SARS-CoV-2 NSP3 Mac1 [1] is −0.44. Also, at SARS-CoV-2 NSP3 Mac1 [1] (maximal thermal upshift), the “DSF max dTma” value is recorded as 0.3 ˚C. Further, on SARS-CoV-2 NSP3 Mac1 [2] (setting [3]), the “1-BDC (PanDDA)” value stood at 0.08. Moreover, the “Modeled?” value at SARS-CoV-2 NSP3 Mac1 [2] (ligand modeled from this dataset, compound concentration 100 mM) is on record as “TRUE”. The same compound returned a Refined occupancy at SARS-CoV-2 NSP3 Mac1 [2] (crystal soaking of Mac1) of 16. Moreover, the “HIT*” value on SARS-CoV-2 NSP3 Mac1 [2] (setting [4]) is recorded as “Y”.
As to `CCc1c[nH]c2ncc(-c3c(C(=O)O)c(C)nn3C)cc12` [REAL250003958539], the “Spearman est (compound concentration vs apparent Tm)” value on SARS-CoV-2 NSP3 Mac1 [1] was 0.15. Further, on SARS-CoV-2 NSP3 Mac1 [1] (maximal thermal upshift), the “DSF max dTma” value is 0.35 ˚C. Further, the 1-BDC at SARS-CoV-2 NSP3 Mac1 [2] (PanDDA event map, 1-BDC of the hit dataset, crystal soak, compound concentration 100 mM) came to 0.2; on SARS-CoV-2 NSP3 Mac1 [2] (setting [3]) it was 0.14. This compound also registered a Refined occupancy at SARS-CoV-2 NSP3 Mac1 [2] (crystal soaking of Mac1) of 28. Moreover, the “HIT*” value at SARS-CoV-2 NSP3 Mac1 [2] (setting [4]) was “Y”.
As to `N#Cc1ccc(OCCn2cnc3c(N)ncnc32)cc1` [ZINC000043461211], the “Spearman est (compound concentration vs apparent Tm)” value on SARS-CoV-2 NSP3 Mac1 [1] worked out at 0.26. Moreover, at SARS-CoV-2 NSP3 Mac1 [1] (setting [5]), the “DSF max dTma” value amounted to 0.45 °C. In addition, the 1-BDC at SARS-CoV-2 NSP3 Mac1 [2] (setting [7]) and on SARS-CoV-2 NSP3 Mac1 [2] (setting [3]) was 0.31 in each case. Besides, the “PanDDA hit?” value on SARS-CoV-2 NSP3 Mac1 [2] (setting [8]) is recorded as “TRUE”. Also, the “Modeled?” value at SARS-CoV-2 NSP3 Mac1 [2] (setting [9]) was “TRUE”. Moreover, the Refined occupancy at SARS-CoV-2 NSP3 Mac1 [2] (crystal soaking of Mac1) is on record as 62. Moreover, on SARS-CoV-2 NSP3 Mac1 [2] (setting [6]), the “HIT*” value is listed as “Y”.
Consider `CC1(C)CCC(C(=O)O)CN1C(=O)c1ncnc2[nH]ccc12` (centres unmarked) [FRESH00012962804], for which the “Spearman est (compound concentration vs apparent Tm)” value at SARS-CoV-2 NSP3 Mac1 [1] turned out to be 0.54. For the same compound, on SARS-CoV-2 NSP3 Mac1 [1] (maximal thermal upshift), the “DSF max dTma” value is listed as 0.62 ˚C. Besides, the 1-BDC at SARS-CoV-2 NSP3 Mac1 [2] (PanDDA event map, 1-BDC of the hit dataset, crystal soak, compound concentration 100 mM, listed as F2804) was 0.32 and 0.28; on SARS-CoV-2 NSP3 Mac1 [2] (setting [3]), 0.22. The Refined occupancy at SARS-CoV-2 NSP3 Mac1 [2] (crystal soaking of Mac1) worked out at 44. In addition, on SARS-CoV-2 NSP3 Mac1 [2] (setting [4]), the “HIT*” value was “Y”.
On to `Nc1ncnc2c1ncn2Cc1ccc(Cl)cn1` [ZINC000559260078], for which the “Spearman est (compound concentration vs apparent Tm)” value at SARS-CoV-2 NSP3 Mac1 [1] is 0.88. The “DSF max dTma” value on SARS-CoV-2 NSP3 Mac1 [1] (setting [5]) was found to be 0.98 °C. Further, the 1-BDC at SARS-CoV-2 NSP3 Mac1 [2] (setting [7]) and at SARS-CoV-2 NSP3 Mac1 [2] (setting [3]) was 0.15 in each case. Also, the “PanDDA hit?” value at SARS-CoV-2 NSP3 Mac1 [2] (setting [8]) is “TRUE”. For the same compound, the “Modeled?” value at SARS-CoV-2 NSP3 Mac1 [2] (setting [9]) was “TRUE”. Besides, the Refined occupancy at SARS-CoV-2 NSP3 Mac1 [2] (crystal soaking of Mac1) worked out at 30. Further, the “HIT*” value at SARS-CoV-2 NSP3 Mac1 [2] (setting [6]) was “Y”.
`OCc1cn(C2CCCN(c3ncnc4[nH]ccc34)C2)nn1` (centres unmarked) [Z7864]: the “DSF max dTma” value on SARS-CoV-2 NSP3 Mac1 [1] (setting [5]) amounted to 0.32 °C. Besides, at SARS-CoV-2 NSP3 Mac1 [2] (setting [6]), the “HIT*” value is “Y”.
